Laboratory results taken from paper PMC10714334, “Developing multispecies quorum-sensing modulators based on the Streptococcus mitis competence-stimulating peptide” (The Journal of Biological Chemistry, 2023).
Non-standard residues stand in square brackets, D forms with d. Residues, ends and D or L forms follow the SMILES beside them. No end group written: not given here.

Tests used:
S. mitis ComD-2 receptor [1] = assay: luminescence reporter competitive inhibition assay (comX expression); format: cell-based, Streptococcus mitis; details: for IC50: same reporter strain, competition against 1 μM native S. mitis-CSP-2, 30 min at 37 °C, triplicate on three separate days
Protocol: As a positive control, 2 μl of S. mitis-CSP-2 and 2 μl of DMSO were added to the same well in triplicate. As a negative control, 4 μl of DMSO was added in triplicate. Then, 2 μl of 15 mg/ml D-luciferin in distilled water was added to each experimental or control well, after which 194 μl of bacteria was added, and the plate was incubated for 30 min at 37 °C. Following incubation, the A600 and luminescence of each experimental well were measured. Results were reported as percent activation, which is the ratio between the luminescence (presented as relative luminescence units, RLU/A600) of the analog and that of the positive control. […] GraphPad Prism was used to calculate the IC50 values, which are the concentration of inhibitor where the response (or binding) is reduced by half. Experiments were performed in triplicate on three separate days.
Antagonism assays were performed at 10 μM concentration of peptides against 1 µM concentration of S. mitis-CSP-2. S. mitis-CSP-2 (1 µM) was used as the positive control (100%) while DMSO as the negative control (0%). For all figures, comX expression is presented as relative luminescence units (RLU) divided by measured cultural optical density (OD). Percent (%) ComD activation was measured by normalizing the RLU/OD value obtained for each peptide to that of the native S. mitis-CSP-2. The results are averages from three replicates and representative of three independent experiments. Error bars represent the standard error of the mean of nine values.
Figure S-8. Primary antagonism screening assay data for t he S. mitis-CSP-2 alanine scan and D-amino acid […]
determine its IC50 value.
Figure S-9. Primary antagonism screening assay data for t he S. mitis-CSP-2 truncated analogs . S. mitis- […]

S. mitis ComD-2 receptor [2] = assay: luminescence reporter activation assay (comX expression); format: cell-based, Streptococcus mitis; details: for EC50: S. mitis luciferase reporter strain ATCC49456 PcomX luc::Spc, 30 min at 37 °C, triplicate on three separate days
Protocol: The ability of synthetic S. mitis-CSP-2 analogs to activate the expression of S. mitis comX was determined using the constructed S. mitis luciferase reporter strain. First, bacteria from the S. mitis luciferase reporter strain freezer stock were streaked onto a Todd-Hewitt broth supplemented with 0.5% yeast extract (THY) agar plate containing 5% horse serum and spectinomycin at a final concentration of 200 μg/ml. The plate was incubated overnight in a CO2 incubator (37 °C with 5% CO2). Fresh colonies were transferred to Tryptic soy broth supplemented with spectinomycin at a final concentration of 200 μg/ml, and the culture was incubated at 37 °C in a 5% CO2-supplemented atmosphere and grown overnight (16 h) until the culture reached an absorbance at 600 nm (optical density at 600 nm [A600]) of 0.45. Overnight cultures of the S. mitis reporter strain at A600 0.45 were diluted 1:10 in Tryptic soy broth and the liquid cultures were incubated in a CO2 incubator for 30 to 45 min, until the bacteria reached early exponential stage (A600 ∼ 0.2) as determined by using a plate reader. During incubation, clear-bottom white 96-well microtiter plates were prepared for the activation assays. An initial activation screening was performed at a high peptide concentration (10,000 nM) for all the S. mitis-CSP-2 analogs (Figs. S1–S7). For each experimental sample, a total of 2 μl of a 1 mM CSP stock solution in dimethyl sulfoxide (DMSO) was added in triplicate to the clear-bottom white 96-well microtiter plate. A total of 2 μl of DMSO was added in triplicate and served as the negative control, and 2 μl of a 1 mM stock of native S. mitis-CSP-2 was added in triplicate as a positive control. In the dark, 2 μl of a 15 mg/ml D-luciferin stock in distilled water was added to each well. Following the addition of synthetic CSPs and D-luciferin, 196 μl of the diluted bacterial culture was added to each well, and the plate was incubated for 30 min at 37 °C. Following incubation, the A600 and luminescence of each experimental well were measured. Results were reported as percent activation, which is the ratio between the luminescence (presented as relative luminescence units, RLU/A600) of the analog and that of the positive control. […] EC50 values, the concentration of the peptide to achieve a half maximal response, for each activator were calculated using GraphPad Prism (https://www.graphpad.com/). Experiments were performed in triplicate on three separate days.
Primary reporter gene assay data
Agonism assays were performed at a 10 µM concentration of synthetic CSP. S. mitis-CSP-2 was used as the positive control (100%) while DMSO as the negative control (0%). For all figures, comX expression is presented as relative luminescence units (RLU) divided by measured cultural optical density (OD). Percent (%) ComD activation was measured by normalizing the RLU/OD value obtained for each peptide to that of the native S. mitis-CSP-2. The results are averages from three replicates and representative of three independent experiments. Error bars represent the standard error of the mean of nine values.
Figure S-1. Primary agonism screening assay data for the S. mitis-CSP-2 alanine scan analogs. Peptides […]
(1 picture or pasted object on this page, not shown here)

[3] = molecular target: pneumococcus ComD2 receptor; details: read-out: EC50, S. pneumoniae ComD2; cited from earlier work
Source text: (§1) Table 5 EC50 or IC50 values of select Streptococcus mitis-CSP-2–based pneumococcal QS modulators against the pneumococcus ComD1 and ComD2 and the S. mitis ComD-2 receptors ^a | column: Streptococcus pneumoniae ^b / ComD2 / EC50 or IC50∗ (nM) || In our previous work, we utilized the S. mitis-CSP-2 scaffold to develop analogs capable of modulating the two pneumococcal ComD receptors at low nanomolar concentrations ([2]). We wanted to evaluate whether the optimization of the S. mitis-CSP-2 scaffold to the pneumococcus ComD receptors affected the ability of the modified analogs to interact with the S. mitis ComD-2 receptor.

[4] = molecular target: pneumococcus ComD1 receptor; details: read-out: EC50, S. pneumoniae ComD1; cited from earlier work
Source text: as §1, with “/ ComD1” for “/ ComD2”

Row | Compound | EC50 (S. mitis ComD-2 receptor [2]) | EC50 [3] | EC50 [4] | further results
1 | AIRQTHNIFFNAFKRR [S. mitis-CSP-2-E1AF12A] | – | – | – | IC50 (S. mitis ComD-2 receptor [1]): > 1000 nM
2 | CC[C@H](C)[C@H](NC(=O)[C@H](CC(N)=O)NC(=O)[C@H](Cc1c[nH]cn1)NC(=O)[C@@H](NC(=O)[C@@H](CCC(N)=O)NC(=O)[C@H](CCCNC(=N)N)NC(=O)[C@@H](NC(=O)[C@@H](N)CCC(=O)O)[C@@H](C)CC)[C@@H](C)O)C(=O)N[C@@H](Cc1ccccc1)C(=O)N[C@@H](Cc1ccccc1)C(=O)N[C@@H](CC(N)=O)C(=O)N[C@@H](Cc1ccccc1)C(=O)N[C@@H](Cc1ccccc1)C(=O)N[C@@H](CCCCN)C(=O)N[C@@H](CCCNC(=N)N)C(=O)N[C@@H](CCCNC(=N)N)C(=O)O [S. mitis-CSP-2-q4] (H-EIR[dQ]THNIFFNFFKRR-OH; N-terminus and C-terminus assumed) | > 1000 nM | – | – | –
3 | EMRQTHNFFFNFFKRR [S. mitis-CSP-2-I2MI8F, S. mitis-CSP-2-based pneumococcal QS modulator from previous study] | – | 83.2 nM | 151 nM | –
4 | EMRQTHIFFFNFFKRR [S. mitis-CSP-2-I2MN7II8F] | > 1000 nM | 2.67 nM | 61.6 nM | –
5 | CC[C@H](C)[C@H](NC(=O)[C@H](CC(N)=O)NC(=O)[C@H](Cc1c[nH]cn1)NC(=O)[C@H](NC(=O)[C@H](CCC(N)=O)NC(=O)[C@H](CCCNC(=N)N)NC(=O)[C@@H](NC(=O)[C@@H](N)CCC(=O)O)[C@@H](C)CC)[C@H](C)O)C(=O)N[C@@H](Cc1ccccc1)C(=O)N[C@@H](Cc1ccccc1)C(=O)N[C@@H](CC(N)=O)C(=O)N[C@@H](Cc1ccccc1)C(=O)N[C@@H](Cc1ccccc1)C(=O)N[C@@H](CCCCN)C(=O)N[C@@H](CCCNC(=N)N)C(=O)N[C@@H](CCCNC(=N)N)C(=O)O [S. mitis-CSP-2-t5] (H-EIRQ[dT]HNIFFNFFKRR-OH; N-terminus and C-terminus assumed) | > 1000 nM | – | – | –
6 | AIRQTHNIFFNFAKRR [S. mitis-CSP-2-E1AF13A] | – | – | – | IC50 (S. mitis ComD-2 receptor [1]): > 1000 nM
7 | EMRQTHFFFFNFFKRR [S. mitis-CSP-2-I2MN7FI8F] | > 1000 nM | 13.5 nM | 63.6 nM | –
8 | EMRQTHFIFFNLFKRR [S. mitis-CSP-2-I2MN7FF12L] | > 1000 nM | 112 nM | 72.8 nM | –
9 | EMRLTHFIFFNFFKRR [S. mitis-CSP-2-I2MQ4LN7F] | > 1000 nM | 75.6 nM | 137 nM | –
10 | EMRLTHNFFFNFFKRR [S. mitis-CSP-2-I2MQ4LI8F, S. mitis-CSP-2-based pneumococcal QS modulator from previous study] | – | 30 nM | 42 nM | –
11 | EIRQTHNIAFNFFKRR [S. mitis-CSP-2-F9A] | > 1000 nM | – | – | –
12 | CC[C@H](C)[C@H](NC(=O)[C@@H](N)CCC(=O)O)C(=O)N[C@@H](CCCNC(=N)N)C(=O)N[C@@H](CCC(N)=O)C(=O)N[C@H](C(=O)N[C@@H](Cc1c[nH]cn1)C(=O)N[C@H](CC(N)=O)C(=O)N[C@H](C(=O)N[C@@H](Cc1ccccc1)C(=O)N[C@@H](Cc1ccccc1)C(=O)N[C@@H](CC(N)=O)C(=O)N[C@@H](Cc1ccccc1)C(=O)N[C@@H](Cc1ccccc1)C(=O)N[C@@H](CCCCN)C(=O)N[C@@H](CCCNC(=N)N)C(=O)N[C@@H](CCCNC(=N)N)C(=O)O)[C@@H](C)CC)[C@@H](C)O [S. mitis-CSP-2-n7] (H-EIRQTH[dN]IFFNFFKRR-OH; N-terminus and C-terminus assumed) | > 1000 nM | – | – | –
13 | EIRQTHNIFFNFF [S. mitis-CSP-2-des-K14R15R16, truncated analog of S. mitis-CSP-2] | – | – | – | ComD-2 activation: EC50 not determined due to the analog's low induction in primary agonism screening assay (S. mitis ComD-2 receptor [2]; initial screening at 10,000 nM peptide): complete loss of activity
14 | CC[C@H](C)[C@H](NC(=O)[C@H](C)N)C(=O)N[C@@H](CCCNC(=N)N)C(=O)N[C@@H](CCC(N)=O)C(=O)N[C@H](C(=O)N[C@@H](Cc1c[nH]cn1)C(=O)N[C@@H](CC(N)=O)C(=O)N[C@H](C(=O)N[C@@H](Cc1ccccc1)C(=O)N[C@H](Cc1ccccc1)C(=O)N[C@H](CC(N)=O)C(=O)N[C@@H](Cc1ccccc1)C(=O)N[C@@H](Cc1ccccc1)C(=O)N[C@@H](CCCCN)C(=O)N[C@@H](CCCNC(=N)N)C(=O)N[C@@H](CCCNC(=N)N)C(=O)O)[C@@H](C)CC)[C@@H](C)O [S. mitis-CSP-2-E1Af10n11] (H-AIRQTHNIF[dF][dN]FFKRR-OH; N-terminus and C-terminus assumed) | – | – | – | IC50 (S. mitis ComD-2 receptor [1]): > 1000 nM
15 | EMRQTHNFFFFFFKRR [S. mitis-CSP-2-I2MI8FN11F, S. mitis-CSP-2-based pneumococcal QS modulator from previous study] | – | 26.2 nM | 6.95 nM | –
16 | EMRLTHNIFFFFFKRR [S. mitis-CSP-2-I2MQ4LN11F] | > 1000 nM | 188 nM | 14.8 nM | –
17 | CC[C@H](C)[C@H](NC(=O)[C@H](CC(N)=O)NC(=O)[C@@H](Cc1c[nH]cn1)NC(=O)[C@@H](NC(=O)[C@H](CCC(N)=O)NC(=O)[C@H](CCCNC(=N)N)NC(=O)[C@@H](NC(=O)[C@@H](N)CCC(=O)O)[C@@H](C)CC)[C@@H](C)O)C(=O)N[C@@H](Cc1ccccc1)C(=O)N[C@@H](Cc1ccccc1)C(=O)N[C@@H](CC(N)=O)C(=O)N[C@@H](Cc1ccccc1)C(=O)N[C@@H](Cc1ccccc1)C(=O)N[C@@H](CCCCN)C(=O)N[C@@H](CCCNC(=N)N)C(=O)N[C@@H](CCCNC(=N)N)C(=O)O [S. mitis-CSP-2-h6] (H-EIRQT[dH]NIFFNFFKRR-OH; N-terminus and C-terminus assumed) | > 1000 nM | – | – | –
18 | IRQTHNIFFNFFKRR [S. mitis-CSP-2-des-E1] | – | – | – | % ComD activation, primary antagonism screening (S. mitis ComD-2 receptor [1]; 10 μM peptide against 1 µM S. mitis-CSP-2 (100%), DMSO 0%): less than 50%; IC50 (S. mitis ComD-2 receptor [1]): > 1000 nM
19 | EIRQTANIFFNFFKRR [S. mitis-CSP-2-H6A] | > 1000 nM | – | – | –
